# Results from patent publication US7101878B1 (Agouron Pharmaceuticals, Inc., priority 1998, dated 2006).
# Target: T1, human GnRH receptor (Homo sapiens, UniProt P30968)
# T1 construct: expressed in transfected cells; host or cells: HEK 293 (hGnRH-R/293, from Dr. Stuart Sealfon)
# T1 sequence (P30968 1-328): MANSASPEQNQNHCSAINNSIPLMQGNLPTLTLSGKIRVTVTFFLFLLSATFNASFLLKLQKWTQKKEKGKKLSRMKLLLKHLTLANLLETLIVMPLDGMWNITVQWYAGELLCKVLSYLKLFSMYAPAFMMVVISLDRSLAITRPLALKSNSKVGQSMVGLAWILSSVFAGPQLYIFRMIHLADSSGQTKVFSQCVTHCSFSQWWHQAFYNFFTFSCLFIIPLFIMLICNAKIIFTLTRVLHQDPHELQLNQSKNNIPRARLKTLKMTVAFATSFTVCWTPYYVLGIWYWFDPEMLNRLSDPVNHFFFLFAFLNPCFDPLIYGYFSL
# Assay: Radioligand binding, 125I-GnRH-A displacement, membranes of HEK 293 cells with human GnRH receptor
# Details: 1 h, read-out: S%R 10 uM hGnRHR
# In short: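 After filtration and PBS washes, bound radioactivity was counted by scintillation and IC50 derived. Identical conditions applied for non-human receptors.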
row,Structure (SMILES),remaining activity at 10 µM
1,COc1cccc(OC)c1NC(=O)c1ccc(Cc2cc3c(cc2C)C(C)(C)CCC3(C)C)o1 [Compound 389],3%

# Same assay, conditions: 1 h, substrate remaining; 10 uM compound; closer to zero = closer to 100% inhibition; read-out: S%R 10 uM hGnRHR
row,Structure (SMILES),remaining activity at 10 µM
1,COc1cc(C#N)c(NC(=O)c2ccc(Cc3cc4c(cc3C)C(C)(C)CCC4(C)C)o2)cc1OC [Compound 343],33%
2,Cc1cc2c(cc1Cc1ccc(C(=O)Nc3ccccc3C(=O)NCC(C)(C)CN(C)C)o1)C(C)(C)CCC2(C)C [Compound 344],57%
3,Cc1cc2c(cc1Cc1ccc(C(=O)Nc3cccc(O)c3)o1)C(C)(C)CCC2(C)C [Compound 345],40%
4,Cc1cc2c(cc1Cc1ccc(C(=O)Nc3cccc4ncccc34)o1)C(C)(C)CCC2(C)C [Compound 346],-14%
5,Cc1cc2c(cc1Cc1ccc(C(=O)Nc3ccc(CC#N)cc3)o1)C(C)(C)CCC2(C)C [Compound 347],2%
6,Cc1cc2c(cc1Cc1ccc(C(=O)Nc3ccccc3C(=O)N3CCN(C)CC3)o1)C(C)(C)CCC2(C)C [Compound 348],49%
7,Cc1cc2c(cc1Cc1ccc(C(=O)Nc3ccccc3C(=O)NC3CC45CCN4CCC35)o1)C(C)(C)CCC2(C)C (centres unmarked) [Compound 349],47%
8,CNc1ccccc1NC(=O)c1ccc(Cc2cc3c(cc2C)C(C)(C)CCC3(C)C)o1 [Compound 350],10%
9,Cc1cc2c(cc1Cc1ccc(C(=O)Nc3cccc(C#N)c3)o1)C(C)(C)CCC2(C)C [Compound 351],24%
10,Cc1cc2c(cc1Cc1ccc(C(=O)Nc3ccccc3C(=O)NCc3cccnc3)o1)C(C)(C)CCC2(C)C [Compound 352],51%
11,Cc1cc2c(cc1Cc1ccc(C(=O)Nc3nc(Cl)c4nc[nH]c4n3)o1)C(C)(C)CCC2(C)C [Compound 353],-4%
12,Cc1cc2c(cc1Cc1ccc(C(=O)Nc3ccc4[nH]c(O)nc4c3)o1)C(C)(C)CCC2(C)C [Compound 355],20%
13,Cc1cc2c(cc1Cc1ccc(C(=O)Nc3nccc4ccccc34)o1)C(C)(C)CCC2(C)C [Compound 356],17%
14,COc1ccccc1NC(=O)c1ccc(Cc2cc3c(cc2C)C(C)(C)CCC3(C)C)o1 [Compound 358],9%
15,Cc1cc2c(cc1Cc1ccc(C(=O)Nc3cccc(OC(F)(F)F)c3)o1)C(C)(C)CCC2(C)C [Compound 359],55%
16,Cc1nc2cc(NC(=O)c3ccc(Cc4cc5c(cc4C)C(C)(C)CCC5(C)C)o3)ccc2s1 [Compound 360],4%
17,COC(=O)c1ccc(OC)c(NC(=O)c2ccc(Cc3cc4c(cc3C)C(C)(C)CCC4(C)C)o2)c1 [Compound 361],4%
18,Cc1cc2c(cc1Cc1ccc(C(=O)Nc3ccccc3C)o1)C(C)(C)CCC2(C)C [Compound 362],1%
19,CSc1ccccc1NC(=O)c1ccc(Cc2cc3c(cc2C)C(C)(C)CCC3(C)C)o1 [Compound 363],14%
20,Cc1cccc(NC(=O)c2ccc(Cc3cc4c(cc3C)C(C)(C)CCC4(C)C)o2)c1 [Compound 364],21%
21,Cc1cc2c(cc1Cc1ccc(C(=O)Nc3ccc4cn[nH]c4c3)o1)C(C)(C)CCC2(C)C [Compound 365],47%
22,CSc1ccc(NC(=O)c2ccc(Cc3cc4c(cc3C)C(C)(C)CCC4(C)C)o2)cc1 [Compound 366],37%
23,Cc1cc2c(cc1Cc1ccc(C(=O)Nc3ccc4c(c3)OCO4)o1)C(C)(C)CCC2(C)C [Compound 367],15%
24,Cc1cc2c(cc1Cc1ccc(C(=O)Nc3ccccc3C(=O)NCCCN3CCCC3=O)o1)C(C)(C)CCC2(C)C [Compound 368],56%
25,Cc1cc2c(cc1Cc1ccc(C(=O)Nc3ncccc3O)o1)C(C)(C)CCC2(C)C [Compound 369],11%
26,Cc1cc2c(cc1Cc1ccc(C(=O)Nc3cccc([N+](=O)[O-])c3)o1)C(C)(C)CCC2(C)C [Compound 370],37%
27,Cc1cc2c(cc1Cc1ccc(C(=O)Nc3ccc(O)c([N+](=O)[O-])c3)o1)C(C)(C)CCC2(C)C [Compound 371],55%
28,Cc1cc2c(cc1Cc1ccc(C(=O)Nc3cc(CO)ccc3C)o1)C(C)(C)CCC2(C)C [Compound 372],1%
29,Cc1cc2c(cc1Cc1ccc(C(=O)Nc3c(C)cccc3O)o1)C(C)(C)CCC2(C)C [Compound 373],19%

# Further lines, results first:
row,remaining activity at 10 µM,Structure (SMILES)
1,13%,COC(=O)c1ccc(NC(=O)c2ccc(Cc3cc4c(cc3C)C(C)(C)CCC4(C)C)o2)cc1OC [Compound 374]
2,16%,CCc1ccc(C)nc1NC(=O)c1ccc(Cc2cc3c(cc2C)C(C)(C)CCC3(C)C)o1 [Compound 375]
3,50%,Cc1cc2c(cc1Cc1ccc(C(=O)Nc3ccc(O)c(C)c3C)o1)C(C)(C)CCC2(C)C [Compound 376]
4,39%,Cc1cc2c(cc1Cc1ccc(C(=O)Nc3ccc4c(=O)[nH][nH]c(=O)c4c3)o1)C(C)(C)CCC2(C)C [Compound 377]
5,-4%,COc1cccc(C)c1NC(=O)c1ccc(Cc2cc3c(cc2C)C(C)(C)CCC3(C)C)o1 [Compound 378]
6,4%,Cc1cc2c(cc1Cc1ccc(C(=O)Nc3ncccc3C)o1)C(C)(C)CCC2(C)C [Compound 379]
7,29%,Cc1cc2c(cc1Cc1ccc(C(=O)Nc3ccc(O)c(Cl)c3)o1)C(C)(C)CCC2(C)C [Compound 380]
8,34%,COc1ccc(NC(=O)c2ccc(Cc3cc4c(cc3C)C(C)(C)CCC4(C)C)o2)cc1F [Compound 381]
9,7%,Cc1cc2c(cc1Cc1ccc(C(=O)Nc3ccc4[nH]ncc4c3)o1)C(C)(C)CCC2(C)C [Compound 383]
10,21%,Cc1cc2c(cc1Cc1ccc(C(=O)Nc3ccccc3)o1)C(C)(C)CCC2(C)C [Compound 384]
11,27%,COC(=O)c1cc(OC)c(OC)c(OO)c1NC(=O)c1ccc(Cc2cc3c(cc2C)C(C)(C)CCC3(C)C)o1 [Compound 386]
12,52%,Cc1cc2c(cc1Cc1ccc(C(=O)Nc3cccc4c(=O)[nH][nH]c(=O)c34)o1)C(C)(C)CCC2(C)C [Compound 387]
13,30%,Cc1cc2c(cc1Cc1ccc(C(=O)Nc3ccc(Br)c4ccccc34)o1)C(C)(C)CCC2(C)C [Compound 388]
14,48%,COc1ccc(NC(=O)c2ccc(Cc3cc4c(cc3C)C(C)(C)CCC4(C)C)o2)c(Oc2ccc(Cl)cc2)n1 [Compound 391]
15,0%,CC(=O)c1cccc(NC(=O)c2ccc(Cc3cc4c(cc3C)C(C)(C)CCC4(C)C)o2)c1 [Compound 392]
16,44%,COC(=O)c1ccc(NC(=O)c2ccc(Cc3cc4c(cc3C)C(C)(C)CCC4(C)C)o2)c(O)c1 [Compound 393]
17,57%,Cc1cc2c(cc1Cc1ccc(C(=O)Nc3c(C)cccc3C(C)C)o1)C(C)(C)CCC2(C)C [Compound 394]

# Same assay, conditions: substrate remaining; 10 uM compound; closer to zero = closer to 100% inhibition
row,S%R 10 uM hGnRHR,Structure (SMILES)
1,−5%,Cc1cc2c(cc1Cc1ccc(C(=O)Nc3ccc4[nH]ccc4c3)o1)C(C)(C)CCC2(C)C [Compound 354]
2,−2%,Cc1cc2c(cc1Cc1ccc(C(=O)Nc3ccc4[nH]ccc4c3)o1)C(C)(C)CCC2(C)C [Compound 357]
3,41%,Cc1cc2c(cc1Cc1ccc(C(=O)Nc3ccc4c(=O)[nH][nH]c(=O)c4c3)o1)C(C)(C)CCC2(C)C [Compound 385]
